Target: T1, viral kinase pUL-97 (Human cytomegalovirus, UniProt P16788)
T1 construct: The pUL-97 gene was cloned into a baculovirus vector; GST (glutathione S-transferase) (N); made in house; host or cells: Sf9 insect cells, baculovirus
Experiment: UL97 kinase assay on Immobilon plate
Type: biochemical
Details: inhibition of UL 97 kinase activity; class by IC50 / % inhibition at 10 μM or 100 μM; read-out: Activity Class [A, B, C]
Outline: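 GST-pUL97 from baculovirus-infected Sf9 cells phosphorylated myelin basic protein with ATP (3 μM in the added assay buffer) and γ-[33P]ATP in Tris-HCl pH 7.5 buffer with MnCl2 and DTT. Reaction ran 1 h at 30 °C with graded compound concentrations and was stopped with EDTA. 33P incorporation was measured by scintillation after filter capture and phosphoric acid washes.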

T1 sequence (P16788 whole entry): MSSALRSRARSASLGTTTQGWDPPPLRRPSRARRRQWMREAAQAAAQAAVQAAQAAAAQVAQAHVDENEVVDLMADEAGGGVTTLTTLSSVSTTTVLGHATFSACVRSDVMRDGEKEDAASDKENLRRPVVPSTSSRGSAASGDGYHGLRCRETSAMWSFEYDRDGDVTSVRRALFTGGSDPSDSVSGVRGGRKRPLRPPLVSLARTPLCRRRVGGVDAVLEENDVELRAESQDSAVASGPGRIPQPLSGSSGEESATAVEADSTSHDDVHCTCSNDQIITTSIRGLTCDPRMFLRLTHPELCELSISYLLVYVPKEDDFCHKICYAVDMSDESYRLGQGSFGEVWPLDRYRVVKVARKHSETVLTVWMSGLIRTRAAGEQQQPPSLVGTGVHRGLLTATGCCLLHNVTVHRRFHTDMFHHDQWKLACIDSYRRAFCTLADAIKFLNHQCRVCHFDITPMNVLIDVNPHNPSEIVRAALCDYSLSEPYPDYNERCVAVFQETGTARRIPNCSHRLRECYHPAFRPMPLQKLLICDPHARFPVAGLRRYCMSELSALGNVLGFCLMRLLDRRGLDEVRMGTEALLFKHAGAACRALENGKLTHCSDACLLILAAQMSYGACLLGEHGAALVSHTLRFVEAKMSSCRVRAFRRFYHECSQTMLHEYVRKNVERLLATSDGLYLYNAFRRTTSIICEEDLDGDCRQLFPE

| Structure (SMILES) | IC50 [µM] |
| --- | --- |
| Fc1cc(-c2cncc(N3CCN(c4cnccn4)CC3)n2)ccc1-c1ccccc1 [compound 334, 6-(2-Fluoro-biphenyl-4-yl)-2′,3′,5′,6′-tetrahydro-[2,1′;4′,2″]terpyrazine] | 10 to 100 |
| Cc1ccc(N2CCN(c3cncc(-c4ccc5ccccc5c4)n3)CC2)cc1C [compound 335, 4-(3,4-Dimethyl-phenyl)-6′-naphthalen-2-yl-3,4,5,6-tetrahydro-2H-[1,2′]bipyrazinyl] | 1 to 10 |
| Cc1cc(C)cc(-c2cncc(N3CCN(c4cccc(C)c4C)CC3)n2)c1 [compound 338, 4-(2,3-Dimethyl-phenyl)-6′-(3,5-dimethyl-phenyl)-3,4,5,6-tetrahydro-2H-[1,2′]bipyrazinyl] | 10 to 100 |
| Cc1cc(C)cc(-c2cncc(N3CCN(c4cccc(C)c4)C(C)C3)n2)c1 (stereo not shown) [compound 339, 6′-(3,5-Dimethyl-phenyl)-3-methyl-4-m-tolyl-3,4,5,6-tetrahydro-2H-[1,2′]bipyrazinyl] | 10 to 100 |
| CN(C)c1ccc(-c2cncc(N3CCN(c4ccc(Cl)cc4)CC3)n2)cc1 [compound 340, {4-[4-(4-Chloro-phenyl)-3,4,5,6-tetrahydro-2H-[1,2′]bipyrazinyl-6′-yl]-phenyl}-dimethyl-amine] | 10 to 100 |
| c1ccc(Oc2ccc(-c3cncc(N4CCN(c5ccccn5)CC4)n3)cc2)cc1 [compound 341, 6′-(4-Phenoxy-phenyl)-4-pyridin-2-yl-3,4,5,6-tetrahydro-2H-[1,2′]bipyrazinyl] | 10 to 100 |
| CN(C)c1ccc(-c2cncc(N3CCN(c4cnccn4)CC3)n2)cc1 [compound 343, Dimethyl-[4-(2′,3′,5′,6′-tetrahydro-[2,1′;4′,2″]terpyrazin-6-yl)-phenyl]-amine] | 1 to 10 |
| Cc1cc(C)cc(-c2cncc(N3CCN(c4cnccn4)CC3)n2)c1 [compound 344, 6-(3,5-Dimethyl-phenyl)-2′,3′,5′,6′-tetrahydro-[2,1′;4′,2″]terpyrazine] | 10 to 100 |
| Cc1cccc(N2CCN(c3cncc(-c4ccc5ccccc5c4)n3)CC2C)c1 (stereo not shown) [compound 347, 3-Methyl-6′-naphthalen-2-yl-4-m-tolyl-3,4,5,6-tetrahydro-2H-[1,2′]bipyrazinyl] | 10 to 100 |
| Clc1ccc(N2CCN(c3cncc(-c4ccc5ccccc5c4)n3)CC2)cc1 [compound 348, 4-(4-Chloro-phenyl)-6′-naphthalen-2-yl-3,4,5,6-tetrahydro-2H-[1,2′]bipyrazinyl] | 1 to 10 |
| Clc1ccc(N2CCN(c3cncc(-c4ccoc4)n3)CC2)cc1 [compound 349, 4-(4-Chloro-phenyl)-6′-furan-3-yl-3,4,5,6-tetrahydro-2H-[1,2′]bipyrazinyl] | 10 to 100 |
| c1ccc(N2CCN(c3cncc(-c4ccsc4)n3)CC2)nc1 [compound 350, 4-Pyridin-2-yl-6′-thiophen-3-yl-3,4,5,6-tetrahydro-2H-[1,2′]bipyrazinyl] | 1 to 10 |
| FC(F)(F)c1ccc(N2CCN(c3cncc(-c4ccc5ccccc5c4)n3)CC2)cc1 [compound 352, 6′-Naphthalen-2-yl-4-(4-trifluoromethyl-phenyl)-3,4,5,6-tetrahydro-2H-[1,2′]bipyrazinyl] | 1 to 10 |
| FC(F)(F)c1ccc(N2CCN(c3cncc(-c4ccoc4)n3)CC2)cc1 [compound 353, 6′-Furan-3-yl-4-(4-trifluoromethyl-phenyl)-3,4,5,6-tetrahydro-2H-[1,2′]bipyrazinyl] | 10 to 100 |
| Cc1cc(C)cc(-c2cncc(N3CCN(c4ccc(Cl)c(Cl)c4)CC3)n2)c1 [compound 358, 4-(3,4-Dichloro-phenyl)-6′-(3,5-dimethyl-phenyl)-3,4,5,6-tetrahydro-2H-[1,2′]bipyrazinyl] | 10 to 100 |
| COc1ccc(-c2cncc(N3CCC(c4ccccc4)CC3)n2)cc1OC [compound 360, 2-(3,4-Dimethoxy-phenyl)-6-(4-Phenyl-piperidin-1-yl)-pyrazine] | 1 to 10 |

More lines, now with the values ahead:

| IC50 [µM] | Structure (SMILES) |
| --- | --- |
| < 1 | c1ccc2c(-c3cncc(N4CCN(c5cnccn5)CC4)n3)csc2c1 [compound 332, 6-Benzo[b]thiophen-3-yl-2′,3′,5′,6′-tetrahydro-[2,1′;4′,2″]terpyrazine] |
| 10 to 100 | CC(C)(C)c1ccc(-c2cncc(N3CCN(c4cnccn4)CC3)n2)cc1 [compound 333, 6-(4-tert-Butyl-phenyl)-2′,3′,5′,6′-tetrahydro-[2,1′;4′,2″]terpyrazine] |
| 1 to 10 | c1ccc(C2CCN(c3cncc(-c4ccsc4)n3)CC2)cc1 [compound 336, 2-(4-Phenyl-piperidin-1-yl)-6-thiophen-3-yl-pyrazine] |
| 1 to 10 | c1ccc(C2CCN(c3cncc(-c4ccc5ccccc5c4)n3)CC2)cc1 [compound 337, 2-Naphthalen-2-yl-6-(4-phenyl-piperidin-1-yl)-pyrazine] |
| 10 to 100 | CSc1ccccc1-c1cncc(N2CCN(c3ccccn3)CC2)n1 [compound 342, 6′-(2-Methylsulfanyl-phenyl)-4-pyridin-2-yl-3,4,5,6-tetrahydro-2H-[1,2′]bipyrazinyl] |
| 1 to 10 | FC(F)(F)c1ccc(-c2cncc(N3CCN(c4cnccn4)CC3)n2)cc1 [compound 345, 6-(4-Trifluoromethyl-phenyl)-2′,3′,5′,6′-tetrahydro-[2,1′;4′,2″]terpyrazine] |
| 10 to 100 | Cc1cccc(N2CCN(c3cncc(-c4ccoc4)n3)CC2)c1C [compound 346, 4-(2,3-Dimethyl-phenyl)-6′-furan-3-yl-3,4,5,6-tetrahydro-2H-[1,2′]bipyrazinyl] |
| 1 to 10 | OCc1ccc(-c2cncc(N3CCN(c4ccccn4)CC3)n2)cc1 [compound 351, [4-(4-Pyridin-2-yl-3,4,5,6-tetrahydro-2H-[1,2′]bipyrazinyl-6′-yl)-phenyl]-methanol] |
| 10 to 100 | Cc1ccc(N2CCN(c3cncc(-c4ccc(C(F)(F)F)cc4)n3)CC2)c(C)c1 [compound 354, 4-(2,4-Dimethyl-phenyl)-6′-(4-trifluoromethyl-phenyl)-3,4,5,6-tetrahydro-2H-[1,2′]bipyrazinyl] |
| 1 to 10 | COc1ccc(N2CCN(c3cncc(-c4ccc(C(F)(F)F)cc4)n3)CC2)cc1 [compound 355, 4-(4-Methoxy-phenyl)-6′-(4-trifluoromethyl-phenyl)-3,4,5,6-tetrahydro-2H-[1,2′]bipyrazinyl] |
| 1 to 10 | COc1cccc(N2CCN(c3cncc(-c4ccc(C(F)(F)F)cc4)n3)CC2)c1 [compound 356, 4-(3-Methoxy-phenyl)-6′-(4-trifluoromethyl-phenyl)-3,4,5,6-tetrahydro-2H-[1,2′]bipyrazinyl] |
| 10 to 100 | CN(C)c1ccc(-c2cncc(N3CCN(c4ccc(Cl)c(Cl)c4)CC3)n2)cc1 [compound 357, {4-[4-(3,4-Dichloro-phenyl)-3,4,5,6-tetrahydro-2H-[1,2′]bipyrazinyl-6′-yl]-phenyl}-dimethyl-amine] |
| 1 to 10 | CSc1ccc(-c2cncc(N3CCN(c4ccc(C)c(C)c4)CC3)n2)cc1 [compound 359, 4-(3,4-Dimethyl-phenyl)-6′-(4-methylsulfanyl-phenyl)-3,4,5,6-tetrahydro-2H-[1,2′]bipyrazinyl] |
| 1 to 10 | CSc1ccc(-c2cncc(N3CCC(c4ccccc4)CC3)n2)cc1 [compound 361, 2-(4-Methylsulfanyl-phenyl)-6-(4-phenyl-piperidin-1-yl)-pyrazine] |
| 1 to 10 | CC(=O)c1ccc(-c2cncc(N3CCC(c4ccccc4)CC3)n2)cc1 [compound 362] |
